Source: patent US8598137B2, “Use of SAM68 for modulating signaling through the TNF receptor” (California Institute of Technology, priority 2010, dated 2013)

How the values were obtained:
[1] = test system: Wildtype and Sam68 knockout cells; details: hydrogen peroxide 100 μM, 24 hours
Source text: Cell death via the intrinsic pathway of apoptosis can be induced by genotoxic and oxidative stress (Roos and Kaina, 2006. Trends in molecular medicine 12, 440-450.) (Dumont et al., 1999. Oncogene 18, 747-757.).

[2] = test system: NF-κB activation in Sam68 knockout fibroblast cells; experiment: IL-1β induced NF-κB activation (IκBα degradation, p65 nuclear translocation); assay type: cell-based, mouse; details: 100 ng/ml IL-1 beta
Procedure: Wild type control and Sam68 knockout fibroblast cells were treated with TNF (Recombinant human TNFα from Peprotech), and IκBα degradation and nuclear translocation of NF-κB protein were used to monitor the activation of their NF-κB pathway (IκBα antibody was from Santa Cruz Biotechnology; assessment of NF-κB nuclear translocation, cytoplasmic and nuclear extracts were prepared as described by Schreiber et al., 1989).
The Sam68 knockout fibroblast cells were treated with IL-1β (R&D Systems), another proinflammatory cytokine. […] Thus, the NF-κB activation pathway is functional in these Sam68 knockout cells, while Sam68 activity is specifically related to TNF signaling.

Compound | death induction, cell morphology [1] | NF-κB activation (IκBα degradation and nuclear translocation of p65) [2]
OO [hydrogen peroxide] | caused death induction in both wildtype and Sam68 knockout cells | –
IL-1β: proinflammatory cytokine, recombinant human IL-1 beta (R&D Systems) | – | remained intact
